From patent publication US20100105680A1, “SUBSTITUTED DIMETHYLCYCLOBUTYL COMPOUNDS, THEIR PREPARATION AND USE IN MEDICAMENTS” (priority 2006, published 2010) come the findings set out here.

The target of the assay is T1, sigma-1 receptor (Cavia porcellus, UniProt Q60492).
T1 construct: guinea pig brains were homogenized; from tissue; host or cells: guinea pig brain membranes
The experiment in a line: Sigma-1 receptor binding ([3H]-(+)-pentazocine, brain membranes). To be noted: [3H]-(+)-pentazocine 0.5 nM, guinea pig brain membranes; for inhibition at 0.01 µM / Percent Inhibition Percent Concentration (μM) 0.0100 SIGMA-1 receptor: compound concentration 0.0100 μM; for inhibition at 0.01 µM: read-out: Percent Inhibition Percent Concentration (μM) 0.0100 SIGMA-1 receptor; for inhibition at 0.1 µM / Percent Inhibition Percent Concentration (μM) 0.1000 SIGMA-1 receptor: compound concentration 0.1000 μM; for inhibition at 0.1 µM: read-out: Percent Inhibition Percent Concentration (μM) 0.1000 SIGMA-1 receptor. As to the method:
Brain membrane preparation and binding assays for the sigma-1 receptor were performed as described (DeHaven-Hudkins et al., Characterization of the binding of [^3H]-(+)-pentazocine to recognition sites in guinea pig brain, Eur. J. Pharmacol. 227, 371-378) with some modifications.
In brief, guinea pig brains were homogenized in 10 vols. (w/v) of Tris-HCl 50 mM, 0.32 M sucrose, pH 7.4, with a Kinematica Polytron PT 3000 at 15000 r.p.m. for 30 s. The homogenate was centrifuged at 1000 g for 10 min at 4° C. and the supernatants collected and centrifuged again at 48000 g for 15 min at 4° C. The pellet was resuspended in 10 volumes of Tris-HCl buffer (50 mM, pH 7.4), incubated at 37° C. for 30 min, and centrifuged at 48000 g for 20 min at 4° C. Following this, the pellet was resuspended in fresh Tris-HCl buffer (50 mM, pH 7.4) and stored on ice until use.
Each assay tube contained 10 μL of [^3H]-(+)-pentazocine (final concentration of 0.5 nM), 900 μL of the tissue suspension to a final assay volume of 1 mL and a final tissue concentration of approximately 30 mg tissue net weight/mL. Non-specific binding was defined by addition of a final concentration of […] haloperidol. All tubes were incubated at 37° C. for 150 min before termination of the reaction by rapid filtration over Schleicher & Schuell GF 3362 glass fibre filters [previously soaked in a solution of 0.5% polyethylenimine for at least 1 h]. Filters were then washed with four times with 4 mL of cold Tris-HCl buffer (50 mM, pH 7.4). Following addition of scintillation cocktail, the samples were allowed to equilibrate overnight. The amount of bound radioactivity was determined by liquid scintillation spectrometry using a Wallac Winspectral 1414 liquid scintillation counter. Protein concentrations were determined by the method of Lowry et al. (Protein measurement with the Folin phenol reagent, J. Biol. Chem, 193, 265).
The binding of the compounds of the present invention to sigma-1 receptors was tested as described above.

SMILES strings stand for the structures.

T1 sequence (Q60492 whole entry): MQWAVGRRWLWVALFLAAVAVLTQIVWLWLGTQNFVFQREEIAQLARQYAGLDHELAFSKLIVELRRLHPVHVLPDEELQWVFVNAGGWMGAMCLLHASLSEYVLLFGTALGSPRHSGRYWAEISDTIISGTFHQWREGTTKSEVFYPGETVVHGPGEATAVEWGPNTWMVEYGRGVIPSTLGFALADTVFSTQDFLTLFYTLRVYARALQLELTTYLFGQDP

On to `CC1(C)[C@H](CCOCc2ccccc2)C[C@@H]1CN1CCOCC1` [compound 1], for which the inhibitory constant (Ki) is 6.1 nM, the inhibition at 0.01 µM was found to be 62.8% and the inhibition at 0.1 µM was determined as 79.7%.
As for `CC1(C)[C@H](CCOCc2ccccc2)C[C@@H]1CN1CCCCC1` [compound 2], the affinity, expressed as Ki, was 1.5 nM; the inhibition at 0.01 µM amounted to 66.5%; the inhibition at 0.1 µM came to 95.9%.
In the case of `CC1(C)[C@H](CCOCc2ccccc2)C[C@@H]1CN1CCC(c2ccccc2)CC1` [compound 3], the inhibition at 0.01 µM was 30.2% and the inhibition at 0.1 µM is 97.7%.
For `CC1(C)[C@H](CCOCc2ccccc2)C[C@@H]1CN1CCN(c2ccccc2)CC1` [compound 4], in that order: 24.1% and 82.2%.
On to `CN1CCN(C[C@H]2C[C@@H](CCOCc3ccccc3)C2(C)C)CC1` [compound 5], for which the inhibition at 0.01 µM was 42.5% and the inhibition at 0.1 µM turned out to be 92.4%.
With `CC1(C)[C@@H](COCc2ccccc2)C[C@H]1CN1CCOCC1` [compound 6], the affinity corresponds to a Ki of 1.3 nM, the inhibition at 0.01 µM was 91% and the inhibition at 0.1 µM was found to be 98.4%.
The matching figures for `CC1(C)[C@@H](COCc2ccccc2)C[C@H]1CN1CCCCC1` [compound 7]: 0.79 nM, 94.5% and 101%.
In the case of `CC1(C)[C@@H](COCc2ccccc2)C[C@H]1CN1CCC(c2ccccc2)CC1` [compound 8], the affinity corresponds to a Ki of 10.9 nM, the inhibition at 0.01 µM was found to be 48.3% and the inhibition at 0.1 µM was found to be 101%.
The matching figures for `CC1(C)[C@@H](COCc2ccccc2)C[C@H]1CN1CCN(c2ccccc2)CC1` [compound 9]: 14.6 nM, 60% and 94.7%.
For the molecule `CN1CCN(C[C@@H]2C[C@H](COCc3ccccc3)C2(C)C)CC1` [compound 10], the affinity, expressed as Ki, was 0.95 nM; the inhibition at 0.01 µM is 86.7%; the inhibition at 0.1 µM was 99.5%.
As to `CC(O)[C@@H]1C[C@H](CCN2CCOCC2)C1(C)C` (some centres unmarked) [compound 11], the inhibition at 0.01 µM is -8.3% and the inhibition at 0.1 µM was found to be 44.4%.
As to `CC(O)[C@@H]1C[C@H](CCN2CCCCC2)C1(C)C` (some centres unmarked) [compound 12], the inhibition at 0.01 µM turned out to be 5.5% and the inhibition at 0.1 µM amounted to 44.1%.
For `CC(O)(c1ccccc1)[C@@H]1C[C@H](CCN2CCOCC2)C1(C)C` (some centres unmarked) [compound 13], the Ki was 1.2 nM, the inhibition at 0.01 µM stood at 77.8% and the inhibition at 0.1 µM turned out to be 95.2%.
Regarding `CC(O)(c1ccccc1)[C@@H]1C[C@H](CCN2CCCCC2)C1(C)C` (some centres unmarked) [compound 14], the Ki is 1.9 nM, the inhibition at 0.01 µM stood at 75.6% and the inhibition at 0.1 µM was 97.5%.
In the case of `CC1(C)[C@@H](CCOc2ccccc2)C[C@H]1CN1CCOCC1` [compound 15], the Ki turned out to be 4.2 nM, the inhibition at 0.01 µM was 93.6% and the inhibition at 0.1 µM worked out at 95.4%.
For `CC1(C)[C@@H](CCOc2ccccc2)C[C@H]1CN1CCCCC1` [compound 16], in that order: 2.2 nM, 97.5% and 96.4%.
For the molecule `CC1(C)[C@@H](CCO)C[C@H]1CN1CCCCC1` [compound 17], the Ki came out at 41.8 nM, the inhibition at 0.01 µM amounted to 45.2% and the inhibition at 0.1 µM was determined as 61.5%.
As for `CC1(C)[C@H](CCO)C[C@@H]1CN1CCCCC1` [compound 18], the inhibition at 0.01 µM was -21.4% and the inhibition at 0.1 µM turned out to be 44.8%.
For the molecule `CC1(C)[C@@H](CCO)C[C@H]1CN1CCOCC1` [compound 19], the inhibition at 0.01 µM was 17.1% and the inhibition at 0.1 µM worked out at 42.3%.
The matching figures for `CC1(C)[C@H](CCO)C[C@@H]1CN1CCOCC1` [compound 20]: 31.5% and 63.1%.
For `CC1CCN(C[C@@H]2C[C@H](CCO)C2(C)C)CC1` [compound 21], in that order: 25.7% and 77.1%.
As for `CC1(C)[C@@H](CCO)C[C@H]1CN1CCC(c2ccccc2)CC1` [compound 22], the Ki stood at 1.4 nM, the inhibition at 0.01 µM is 91.9% and the inhibition at 0.1 µM was determined as 96.8%.
As for `C[C@@H]1CN(C[C@@H]2C[C@H](CCO)C2(C)C)C[C@H](C)O1` [compound 23], the inhibition at 0.01 µM came out at 27.6% and the inhibition at 0.1 µM was 70.6%.
In the case of `CN(Cc1ccccc1)CC1CC(CCO)C1(C)C` (centres unmarked) [compound 24], the affinity corresponds to a Ki of 3.3 nM, the inhibition at 0.01 µM turned out to be 69.7% and the inhibition at 0.1 µM turned out to be 92%.
The matching figures for `CC1(C)[C@H](CO)C[C@@H]1CCN1CCC(Cc2ccccc2)CC1` [compound 25]: 1.2 nM, 83% and 98.3%.
Regarding `COC(=O)C[C@H]1C[C@@H](CN2CCCCC2)C1(C)C` [compound 26], the inhibition at 0.01 µM is 23.9% and the inhibition at 0.1 µM turned out to be 50%.
Turning to `CC1(C)[C@@H](CCOCc2ccccc2)C[C@H]1CN1CCCCC1` [compound 27], the Ki is 1.1 nM, the inhibition at 0.01 µM was found to be 96.5% and the inhibition at 0.1 µM amounted to 104%.
Regarding `CC1CCN(C[C@@H]2C[C@H](CCOCc3ccccc3)C2(C)C)CC1` [compound 28], the affinity corresponds to a Ki of 5 nM, the inhibition at 0.01 µM worked out at 93.5% and the inhibition at 0.1 µM worked out at 100%.
The matching figures for `CC1(C)[C@@H](CCOCc2ccccc2)C[C@H]1CN1CCC(c2ccccc2)CC1` [compound 29]: 16.6 nM, 76.9% and 95.6%.
For `CC1(C)[C@@H](CCOCc2ccccc2)C[C@H]1CN1CCSCC1` [compound 30], the inhibition constant Ki was determined as 1 nM, the inhibition at 0.01 µM was 74% and the inhibition at 0.1 µM came to 91.8%.
For `CC1(C)[C@@H](CCOCc2ccccc2)C[C@H]1CN1CCOCC1` [compound 31], in that order: 1.7 nM, 89.9% and 101%.
For `C[C@@H]1CN(C[C@@H]2C[C@H](CCOCc3ccccc3)C2(C)C)C[C@H](C)O1` [compound 32], in that order: 3.6 nM, 94.6% and 99.1%.
Consider `CC1(C)[C@@H](CCOCc2ccccc2)C[C@H]1CN1CCCC1` [compound 33], for which the inhibition constant (Ki) came to 0.6 ± 0.2 nM, the inhibition at 0.01 µM was 85.3% and the inhibition at 0.1 µM is 89.8%.
The matching figures for `CN1CCN(C[C@@H]2C[C@H](CCOCc3ccccc3)C2(C)C)CC1` [compound 34]: 3.6 nM, 92.3% and 96.2%.
For `CN1CCN(C[C@@H]2C[C@H](CCOCc3ccccc3)C2(C)C)CC1.O=C(O)C(=O)O` [compound 35], the affinity, expressed as Ki, was 5.3 nM; the “Percent Inhibition Percent Concentration (μM) 0.0100 SIGMA-1 receptor” value is 76.7%; the “Percent Inhibition Percent Concentration (μM) 0.1000 SIGMA-1 receptor” value amounted to 95.9%.
Consider `CC1(C)[C@@H](CCOCc2ccccc2)C[C@H]1CN1CCN(c2ccccc2)CC1` [compound 36], for which the affinity corresponds to a Ki of 47 nM, the inhibition at 0.01 µM was 65.8% and the inhibition at 0.1 µM is 88.3%.
As for `CC1(C)[C@@H](CCOCc2ccccc2)C[C@H]1CN1CCN(c2ccccc2)CC1.O=C(O)C(=O)O` [compound 37], the Ki was found to be 33.5 nM, the “Percent Inhibition Percent Concentration (μM) 0.0100 SIGMA-1 receptor” value was 79.7% and the “Percent Inhibition Percent Concentration (μM) 0.1000 SIGMA-1 receptor” value is 98.8%.
Regarding `CC1(C)[C@H](COCc2ccccc2)C[C@@H]1CCN1CCCCC1` [compound 38], the affinity, expressed as Ki, was 1.2 nM; the inhibition at 0.01 µM turned out to be 88.6%; the inhibition at 0.1 µM was 98.5%.
The matching figures for `CC1(C)[C@H](COCc2ccccc2)C[C@@H]1CCN1CCOCC1` [compound 39]: 8.4 nM, 94.1% and 95.8%.
Regarding `CC1(C)[C@@H](CCN2CCCC(c3ccccc3)C2)C[C@H]1CN1CCOCC1` (some centres unmarked) [compound 40], the inhibition at 0.01 µM was 16.3% and the inhibition at 0.1 µM was 60.1%.
The matching figures for `CC1(C)[C@@H](CCN2CCC(Cc3ccccc3)CC2)C[C@H]1CN1CCOCC1` [compound 42]: 19.7% and 88%.
